Test results taken from patent US9969741B2, “Pyrazolotriazines as inhibitors of nucleases” (MASARYKOVA UNIVERZITA, priority 2014, dated 2018).

Test system: not given
Assay: not given
Details: not given

| SMILES | melting point |
| --- | --- |
| CC(C)(C)[Si](OCc1cc2nnc(-c3nc4ccccc4[nH]3)c(N)n2n1)(c1ccccc1)c1ccccc1 | 233.5 to 234 °C |
| Nc1c(-c2nc3ccccc3[nH]2)nnc2cc(-c3ccccc3-c3ccccc3)nn12 [Preparative Example 5L] | > 250 °C |
| Nc1c(-c2nc3ccccc3[nH]2)nnc2cc(C=O)nn12 [Preparative Example 7] | > 250 °C |
| CCc1nn2c(N)c(C#N)nnc2c1-c1ccc(F)cc1 [Preparative Example 11] | > 215 °C (dec.) |
| CCc1nn2c(N)c(-c3nc4ccccc4[nH]3)nnc2c1Br [Preparative Example 13] | > 250 °C |

Target: T1, MUS81/EME1 (Homo sapiens, UniProt Q96NY9)
T1 sequence (Q96NY9 1-551): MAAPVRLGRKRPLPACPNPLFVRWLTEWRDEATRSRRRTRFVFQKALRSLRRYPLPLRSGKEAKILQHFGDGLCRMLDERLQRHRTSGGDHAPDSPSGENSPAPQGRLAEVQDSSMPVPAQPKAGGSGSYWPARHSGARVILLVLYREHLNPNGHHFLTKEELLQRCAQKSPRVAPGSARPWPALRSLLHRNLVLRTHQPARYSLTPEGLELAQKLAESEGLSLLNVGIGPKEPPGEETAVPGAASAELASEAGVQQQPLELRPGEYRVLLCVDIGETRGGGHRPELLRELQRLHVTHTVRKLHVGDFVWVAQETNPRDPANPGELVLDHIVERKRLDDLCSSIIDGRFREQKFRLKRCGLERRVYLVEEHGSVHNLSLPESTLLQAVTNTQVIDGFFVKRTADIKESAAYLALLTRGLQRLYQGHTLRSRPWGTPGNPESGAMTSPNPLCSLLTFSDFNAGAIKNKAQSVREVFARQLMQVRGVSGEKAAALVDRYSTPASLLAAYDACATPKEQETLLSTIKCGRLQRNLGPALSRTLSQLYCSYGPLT
T1 sequence (Q96AY2 1-570 partner): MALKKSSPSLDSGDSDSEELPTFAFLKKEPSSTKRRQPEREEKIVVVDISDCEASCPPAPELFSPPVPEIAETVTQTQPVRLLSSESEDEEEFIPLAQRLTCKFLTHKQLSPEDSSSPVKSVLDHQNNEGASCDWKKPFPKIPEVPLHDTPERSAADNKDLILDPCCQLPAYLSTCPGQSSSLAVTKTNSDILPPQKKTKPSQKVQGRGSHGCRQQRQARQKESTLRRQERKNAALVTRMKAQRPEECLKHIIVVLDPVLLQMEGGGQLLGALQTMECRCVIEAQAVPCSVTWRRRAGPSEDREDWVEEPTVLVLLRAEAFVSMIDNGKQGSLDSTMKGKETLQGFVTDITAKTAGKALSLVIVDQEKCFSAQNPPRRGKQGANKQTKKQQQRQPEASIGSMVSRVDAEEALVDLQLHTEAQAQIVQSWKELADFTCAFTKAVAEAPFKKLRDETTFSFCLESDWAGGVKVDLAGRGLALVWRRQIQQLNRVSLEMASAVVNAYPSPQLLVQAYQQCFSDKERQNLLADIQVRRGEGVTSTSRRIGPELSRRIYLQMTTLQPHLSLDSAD
Assay: Nuclease inhibition assay, MUS81/EME1 (3′ flap fluorescent DNA substrate, gel readout)
Type: biochemical
Details: 5 nM enzyme, 5 nM 3′ flap substrate, 15 min at 30° C.
Source text: In vitro assays were used for the determination of compound's IC50 values for inhibition of individual nucleases, i.e., MUS81/EME1, FEN1, EXO1, and MRE11. To generate IC50 values, concentration of compound was plotted against relative nuclease activity (in %). The dose-response curves were generated from inhibition data, from 5 point serial dilutions of inhibitory compounds, each in triplicate and fitted to a standard sigmoid curve. IC50 values were derived by standard nonlinear regression analysis.
All tested compounds were diluted in 100% DMSO (dimethylsulfoxide) to prepare working stocks with different concentrations. To keep the DMSO concentration constant in every reaction, always 0.5 μl of the compound stock was added to the reaction buffer. The reaction buffer differs depending on the enzyme tested. Also concentration of the compounds in the reaction depends on the particular enzyme, since the inhibitory effect of the compounds vary between the enzymes. Nevertheless, always doubling dilutions in the range 200-0.8 μM was used. The compound was added as the first component in the reaction buffer, followed by the enzyme addition. Short (15 minutes) pre-incubation step followed before the reaction was initiated by addition of DNA substrate (5 nM).
As a negative control, DNA substrate specific for each particular enzyme without the addition of the enzyme and the compound was used. The positive control contained all components of the reaction, except the compound of interest. However, to compensate for solvent effects, DMSO (at a final concentration of 2.5%) was included in the reaction.
For this experiment we prepared short fluorescently labeled oligonucleotide-based DNA substrates with specific structures reflecting the biochemical activities of tested individual nucleases (Table 1). These substrates were prepared by annealing of synthetic oligonucleotides purchased from VBC Biotech. Composition of each substrate is indicated below the table; the corresponding oligonucleotides were combined in equimolar ratios. For visualization, each substrate was labeled by fluorescent dye (fluorescein), which can be detected in the gel using appropriate imaging system (FLA-9000, Fuji) with filters for particular wavelengths (excitation: 485 nm, emission: 535 nm).
Nuclease assays were performed in reaction buffer specific for particular enzyme: MUS81/EME1 (50 mM Tris pH=7.5, 5 mM MgCl2, 1 mM DTT a 100 μg/ml BSA), MRE11 (30 mM Bis-Tris pH=7.0, 50 μg/ml BSA, 1 mM DTT a 250 μM MnCl2), EXO1 and FEN1 (50 mM Tris pH=7.5, 1 mM MgCl2, 1 mM DTT a 100 μg/ml BSA). The individual reactions were prepared by mixing with highly purified enzyme (MUS81/EME1 (5 nM), MRE11 (5 nM), EXO1 (5 nM) or FEN1 (10 nM); purification protocols described below), and different concentration of inhibitor (mentioned above) in corresponding reaction buffer. The final volume of the reaction was 20 μl. After short pre-incubation (15 minutes at room temperature), the reaction was initiated by addition of 5 nM of corresponding fluorescently labeled DNA substrate (3′ flap for MUS81/EME1, 5′ flap for MRE11 and FEN1, 3′ OH for EXO1; see FIG. 1) and incubated for 15 minutes at 30° C. Next, the reaction was stopped and deproteinized by addition of 2 μl of stop buffer, containing 0.1% SDS and 500 μg/ml proteinase K, and incubated for additional 5 minutes at 30° C. Then the loading dye, containing glycerol (60% glycerol, 10 mM Tris pH=7.4, 60 mM EDTA a 0.1% Orange G), was added to each reaction ( 1/10 of the reaction volume), and the whole mixture was subjected to electrophoresis in 10% polyacrylamide native gel (110 V, 40 min, 1× TBE). Fluorescently labeled DNA was detected by FLA-9000 scanner (Fuji) and the result was evaluated using Multi-Gauge V3.2 software (Fuji).
The Mus81/Eme1 expression construct was a kind gift from Dr. Steve West (Cancer Research UK). Briefly, the nuclease complex was purified as follows. […]

| SMILES | IC50 |
| --- | --- |
| CCc1cc2nnc(-c3nc4ccccc4[nH]3)c(N)n2n1 [Preparative Example 5B] | < 50 µM |
| CC(C)c1nn2c(N)c(-c3nc4ccccc4[nH]3)nnc2c1-c1ccc(F)cc1 [Preparative Example 5D] | < 50 µM |
| CC(C)(C)c1cc2nnc(-c3nc4ccccc4[nH]3)c(N)n2n1 [Preparative Example 5F] | < 50 µM |
| Nc1c(-c2nc3ccccc3[nH]2)nnc2cc(-c3ccccc3Cl)nn12 [Preparative Example 5G] | < 50 µM |
| CCc1nn2c(N)c(-c3nc4ccccc4n3Cc3ccccc3)nnc2c1-c1ccc(F)cc1 [Preparative Example 5M] | < 50 µM |
| CCc1cc2nnc(-c3nc4ccccc4n3Cc3ccccc3)c(N)n2n1 [Preparative Example 5N] | < 50 µM |
| Nc1c(-c2nc3ccccc3[nH]2)nnc2ccnn12 [Preparative Example 5O] | > 50 µM |
| Nc1c(-c2nc3ccccc3[nH]2)nnc2c(-c3ccc(F)cc3)cnn12 [Preparative Example 5P] | > 50 µM |
| CCc1nn2c(N)c(-c3nc4ccccc4[nH]3)nnc2c1-c1cccc(-c2ccccc2)c1 [Preparative Example 5Y] | < 10 µM |
| CCc1nn2c(N)c(-c3nc4ccccc4[nH]3)nnc2c1-c1cccc(C(=O)OC)c1 [Preparative Example 5Z] | < 10 µM |
| CCc1nn2c(N)c(-c3nc4ccccc4[nH]3)nnc2c1-c1cccc(C(=O)O)c1 [Preparative Example 5Zb] | < 10 µM |
| Nc1c(-c2nc3ccccc3[nH]2)nnc2cc(CO)nn12 [Preparative Example 6] | > 50 µM |
| CCc1nn2c(O)c(-c3nc4ccccc4[nH]3)nnc2c1-c1ccc(F)cc1 [Preparative Example 8A] | < 10 µM |
| CCc1nn2c(N)c(C#N)nnc2c1-c1ccc(F)cc1 [Preparative Example 11] | > 50 µM |
| CCc1nn2c(N)c(C(N)=O)nnc2c1-c1ccc(F)cc1 [Preparative Example 12] | > 50 µM |
| CS(=O)(=O)c1ccc(-c2cnn3c(O)c(-c4nc5ccccc5n4Cc4ccccc4)nnc23)cc1 [Preparative Example 17A] | < 10 µM |
| O=[N+]([O-])c1ccc(-c2cnn3c(O)c(-c4nc5ccccc5n4Cc4ccccc4)nnc23)cc1 [Preparative Example 17B] | < 10 µM |
| Oc1c(-c2nc3ccccc3n2Cc2ccccc2)nnc2c(-c3ccsc3)cnn12 [Preparative Example 17C] | < 50 µM |
| Oc1c(-c2nc3ccccc3n2Cc2ccccc2)nnc2c(-c3ccncc3)cnn12 [Preparative Example 17D] | < 10 µM |
| Cn1ccc(-c2cnn3c(O)c(-c4nc5ccccc5n4Cc4ccccc4)nnc23)n1 [Preparative Example 17E] | < 50 µM |
| CS(=O)(=O)c1ccc(-c2cnn3c(O)c(-c4nc5ccccc5[nH]4)nnc23)cc1 [Preparative Example 18A] | < 10 µM |
| Cn1ccc(-c2cnn3c(O)c(-c4nc5ccccc5[nH]4)nnc23)n1 [Preparative Example 18B] | < 50 µM |
| CCc1nn2c(O)c(-c3nc4cc(C)c(C)cc4[nH]3)nnc2c1-c1ccc(F)cc1 [Preparative Example 21] | < 10 µM |
